Results: patent US11713293B2, “Substituted biaryl sulfonamides and the use thereof” (NovoMedix, LLC, priority 2012, dated 2023)
Like-named read-outs stand apart in the source and are kept apart here.

Assays:
[1] = tested on: triple negative breast cancer cell line MDA-MB-468; test: Cell-based IC50 assay, adherent cells, MDA-MB-468; conditions: Homo sapiens, 72 hours, CellTiter 96 Aqueous One, metabolically active cells decreased by 50%
Method: (§1) In one embodiment, the IC50s of the compounds provided herein were determined in cell-based assays using adherent cells. In one embodiment, the activity of the compounds provided herein were determined in a cell-based assay using the triple negative breast cancer cell line MDA-MB-468. In one embodiment, the activity of the compounds provided herein were determined in a cell-based assay using the triple negative breast cancer cell line MDA-MB-231. In one embodiment, the activity of the compounds provided herein were determined in a cell-based assay using the triple negative breast cancer cell line 4T1.
(§2) In one embodiment, the cell-based assay may be carried out as provided herein. On day 0, cells were seeded at 20,000 cells per well in 100 μL of media into individual wells of a 96-well tissue culture plate. The next day, compounds were diluted to twice the desired final concentration and added in 100 μL of media for a final volume of 200 μL. Standard solutions for each compound were prepared at 1000× concentration in DMSO. The highest concentration was […]. Serial 1:1 dilutions were made from there for a 6- or 9-point curve (e.g., 20 mM, 10 mM, 5 mM, etc). Compounds were then diluted 1:500 in media, and 100 μL of the resulting solution was added to each well for a final dilution of 1:1000. Each concentration of compound was tested in triplicate. Cells were incubated at 37° C. with 5% CO2. After 72 hours, 20 μL of CellTiter 96 Aqueous One Solution Cell Proliferation Assay (Promega) was added to each well. Cells were placed back in the incubator, and the absorbance at 490 nm was read after 2-3 hours. The concentration of compound that decreased the number of metabolically active cells by 50% was determined and reported as the IC50. “Percent Viability” was determined by subtracting the average background value (media only) and expressed as a ratio to the average value obtained from cells treated with only DMSO.
The IC50s of the compounds provided herein and some reference compounds were determined in cell-based assay using triple negative breast cancer cell line MDA-MB-468.

[2] = tested on: triple negative breast cancer cell line MDA-MB-231; test: Cell-based IC50 assay, adherent cells, MDA-MB-231; conditions: Homo sapiens, 72 hours, CellTiter 96 Aqueous One
Method: as §1, §2

[3] = tested on: triple negative breast cancer cell line 4T1; test: Cell-based IC50 assay, adherent cells, 4T1; conditions: 72 hours, CellTiter 96 Aqueous One
Method: as §1
In one embodiment, the cell-based assay may be carried out as provided herein. On day 0, cells were seeded at 20,000 cells per well in 100 μL of media into individual wells of a 96-well tissue culture plate. The next day, compounds were diluted to twice the desired final concentration and added in 100 μL of media for a final volume of 200 μL. Standard solutions for each compound were prepared at 1000× concentration in DMSO. The highest concentration was 30 mM. […] Cells were placed back in the incubator, and the absorbance at 490 nm was read after 2-3 hours. […] “Percent Viability” was determined by subtracting the average background value (media only) and expressed as a ratio to the average value obtained from cells treated with only DMSO.

[4] = tested on: m7GpppN-capped luciferase mRNA reporter; test: In vitro HeLa cell extract translation system, translation inhibition; type: biochemical; conditions: at 10 μM
Method: In one embodiment, the compounds provided herein were assayed for translation inhibition activity using an in vitro HeLa cell extract translation system with an m7GpppN-capped luciferase mRNA reporter.

[5] = tested on: purified luciferase protein; test: Inhibition of purified luciferase protein (specificity control); type: biochemical; conditions: at 100 μM
[6] = tested on: cyclin D3; test: Cyclin D3 levels by Western blot in MDA-MB-231 cells; type: cell-based; conditions: 10 μM, at 18 and 24 h
Method: Cyclin D is one of the most commonly overexpressed genes in breast cancer and high levels correlate with poor prognosis. Furthermore, cyclin D overexpression is correlated with triple-negative basal-like tumors. In one embodiment, the effects of a compound provided herein on cyclin D overexpression were evaluated. […] The density ratio of the cyclin D3 band to respective beta-actin band was determined by Western blot analysis and normalized to DMSO (100%).

[7] = tested on: highly structured 5′-UTR HB3 (triple stem loop) reporter; test: Translation of mRNAs with highly structured 5′-UTR versus unstructured
Method: Many proteins that drive cancer growth and survival (including the cyclins, c-myc, and Pim-1) have secondary structures in the 5′-UTR of their mRNA that limit the rate of translational initiation. In one embodiment, the effects of a compound provided herein on translation of such mRNAs relative to mRNAs without highly structured 5′-UTRs were evaluated.

[8] = tested on: MDA-MB-231 breast tumors; test: Tumor growth inhibition in MDA-MB-231 xenograft model for breast cancer; type: in vivo, Mouse/nude
Method: In one embodiment, the effects of a compound provided herein on tumor growth in a mouse animal model were evaluated. In specific embodiments, the mouse animal model was the MDA-MB-231 xenograft model for breast cancer. Studies were performed to evaluate the effect of a compound provided herein on the growth of MDA-MB-231 breast tumors in mice. The test system that was used is summarized below:
Animals were housed 10 mice per cage in micro-isolators, with sterile corn cob bedding, food, and water. Mice were acclimated for 3 days and given food and tap water ad libitum. Animals were examined prior to initiation of the study to assure adequate health and suitability. […] During the course of the study, 12-hour light/12-hour dark cycle were maintained. A nominal temperature range of 20-23° C. with a relative humidity between 30% and 70% was maintained. LabDiet 5053-certified PicoLab Rodent Diet and sterile water were provided ad libitum during the study.
Exemplary Protocol: Ten mice per group were inoculated s.c. on the left flank with 5×10^6 MDA-MB-231 cells. When tumors reached a mean volume of approximately 100 mm^3, animals began treatment with a compound provided herein (See Table 5). […] Tumors were evaluated every Monday, Wednesday and Friday, body weights and condition were evaluated on a daily basis. […]
Tumor Measurement: Tumors were monitored daily. If, during a daily evaluation, an animal's tumor appeared to have exceeded 1500 mm^3, the tumor was measured; and animals with tumors greater than 1500 mm^3 and/or that had become necrotic and/or hindered movement were euthanized. Tumors were measured twice weekly by measuring each tumor in 2 dimensions, along the largest dimension (length, L) and perpendicular to this dimension (width, W). Tumor weights were calculated using the standard formula: (L×W^2)/2. The mean tumor weight and standard error of the mean were calculated for each group at each time point. […]
Animal Weight: All animals were weighed twice weekly throughout the study. Group weight change was expressed as a daily group mean weight. […]

[9] = Plasma and tumor concentrations at sacrifice in MDA-MB-231 xenograft mice; type: in vivo, Mouse/nude
Method: At study termination, mice still undergoing treatment were given a final dose of compound and sacrificed 2 h later. Average concentrations of compounds in plasma and tumor were determined.

[10] = PK study and oral bioavailability, mouse; type: in vivo; conditions: plasma 0 to 6 h

Compound: CC(C)c1cc(C(C)C)c(S(=O)(=O)Nc2cc(C(F)(F)F)cc(C(F)(F)F)c2)c(C(C)C)c1 [Compound 1, N-[3,5-Bis(trifluoromethyl)phenyl]-2,4,6-triisopropyl-benzenesulfonamide]
- IC50 [1]: 5 µM
- IC50 [2]: 13 µM
- IC50 [3]: 15 µM
- inhibition of luciferase activity vs. DMSO [4]: 97.4%
- inhibition of purified luciferase protein [5]: no inhibition
- cyclin D3 levels (density ratio to beta-actin, normalized to DMSO) [6]: decrease in cyclin D3 levels
- inhibition of highly structured 5′-UTR reporter relative to mRNAs without highly structured 5′-UTRs [7]: preferential inhibition
- mean tumor volume at Day 31 ([8]; qd IP 50 mg/kg, reduced to 25 mg/kg on day 7, vehicle group 898±260 mm^3): 276±119 mm^3
- mean weight gain ([8]; qd IP 50/25 mg/kg, Days 1 to 31, vehicle group 4.2%): 0.1%
- tumor growth after drug withdrawal ([8]; within 10 days of withdrawal, from day 32): tumor growth did not resume
- levels in plasma and tumor samples after discontinued treatment ([9]; mice that discontinued treatment on Day 31, at study termination): detectable levels
- concentration at 14 days ([9]; nude, mouse, plasma, intraperitoneal, treated until the end: No, none after day 31, sacrificed day 45, read-out: Ave. Plasma Conc.): 50 ± 20 nM
- concentration at 2 h ([9]; nude, mouse, plasma, intraperitoneal, treated until the end: Yes, 50/25 mg/kg, sacrificed day 45, 2 h after final dose, read-out: Ave. Plasma Conc.): 2330 ± 270 nM
- Ave. Tumor Conc. ([9]; treated until the end: No, none after day 31, sacrificed day 45): 0.07 ± 0.04 μM/g of tumor tissue
- Ave. Tumor Conc. ([9]; treated until the end: Yes, 50/25 mg/kg, sacrificed day 45, 2 h after final dose): 1.25 ± 0.09 μM/g of tumor tissue
- C0 ([10]; IV 5 mg/kg, read-out: IV Administration (5 mg/kg) C0): 54600 ng/mL
- half-life ([10]; IV 5 mg/kg, read-out: IV Administration (5 mg/kg) T½ (converted)): 2.1 h
- C0 ([10]; PO 25 mg/kg, read-out: PO Administration (25 mg/kg) C0): 5150 ng/mL
- half-life ([10]; PO 25 mg/kg, read-out: PO Administration (25 mg/kg) T½ (converted)): 1.5 h
